Measured values taken from patent US12642768B2, “Lipid nanoparticles” (Beijing Jitai Life Sciences Ltd, priority 2022, dated 2026).

Assay: Particle size and PDI of lipid nanoparticles by dynamic light scattering
Format: physicochemical
Conditions: LNP 50:38.5:10:1.5, N/P 6, luciferase mRNA
Method: Lipid nanoparticles were prepared by (1) dissolving and mixing ionizable lipid compounds, cholesterol, phospholipids and polyethylene glycolated lipids in ethanol at (molar percentages) 50%, 38.5%, 10% and 1.5%, respectively; (2) dissolving the mRNA active ingredient in 25 mM sodium acetate solution (pH=4.5); (3) using an automated high-throughput microfluidic system to mix the organic phase containing the lipid mixture and the aqueous phase containing the mRNA component in the flow ratio range of 1:1 to 1:4 at a mixing speed of 10 mL/min to 18 mL/min; (4) the prepared lipid nanoparticles (N/P ratio of 6) were diluted with phosphate buffer solution and the nanoparticle solutions were ultrafiltered to the original preparation volume using ultrafiltration tubes (purchased from Millipore) with a cut-off molecular weight of 30 kDa; and (5) the obtained nanoparticles were filtered through a sterile 0.2 μm filter membrane and then stored in a sealed glass vial at low temperature.
The particle size and particle size dispersity index (PDI) of the prepared lipid nanoparticles were measured using a Zetasizer Pro (purchased from Malvern Instruments Ltd) and a DynaPro NanoStar (purchased from Wyatt) dynamic light scattering instrument. The degree of RNA encapsulation by lipid nanoparticles was characterized by the Encapsulation Efficiency %, which reflects the degree of binding of lipid nanoparticles to RNA fragments. This parameter was measured by the method of Quant-it™ RiboGreen RNA Assay (purchased from Invitrogen). Lipid nanoparticle samples were diluted in TE buffer (10 mM Tris-HCl, 1 mM EDTA, pH=7.5). A portion of the sample solution was removed, to which 0.5% Triton (Triton X-100) was added, and then allowed to stand at 37° C. for 30 minutes. Immediately after the addition of RIBOGREEN® reaction solution, the fluorescence values were read on a Varioskan LUX multifunctional microplate reader (purchased from Thermofisher) at 485 nm for absorption and 528 nm for emission to give the encapsulation efficiency values.

SMILES	Particle size dispersity (PDI)
CCCCCCCCCCSC(=O)C(C)(C)CCCCCC(CCCCCC(C)(C)C(=O)OCCCCCCCCC)OC(=O)CCCN(C)C (stereo not shown) [Compound 40]	0.05
CCCCCCCCCOC(=O)C(C)(C)CCCCCC(CCCCCC(C)(C)C(=O)SCCCCCCCCC)OC(=O)CCCN(C)C (stereo not shown) [Compound 41]	0.05
CCCCCCC#CCOC(=O)C(C)(C)CCCCCC(CCCCCC(C)(C)C(=O)OCCCCCCCCC)OC(=O)CCCN(C)C (stereo not shown) [Compound 42]	0.07
CCCCCCCCCCOC(=O)C(C)(C)CCCCCC(CCCCCC(C)(C)C(=O)OCCCCCCCCCC)OC(=O)CCN1CCOCC1 [Compound 90]	0.05
CCCCCCCCCCOC(=O)C(C)(C)CCCCCC(CCCCCC(C)(C)C(=O)OCCCCCCCCCC)OC(=O)CN1CCOCC1 [Compound 91]	0.05
CCCCCCCCCCOC(=O)C(C)(C)CCCCCC(CCCCCC(C)(C)C(=O)OCCCCCCCCCC)OC(=O)CCN1CCCC1 [Compound 92]	0.05
CCCCCCCCCOC(=O)CC(C)(C)CCCCC(CCCCC(C)(C)CC(=O)OCCCCCCCCC)OC(=O)CCCN(C)C [Compound 97]	0.25
CCCCCCC/C=C\COC(=O)CC(C)(C)CCCCC(CCCCC(C)(C)CC(=O)OCC(CCCCC)CCCCCCC)OC(=O)CCCN(C)C (stereo not shown) [Compound 98]	0.13
CCCCCCCCCCOC(=O)C(C)(C)CCCCCC(CCCCCC(C)(C)C(=O)OCCCCCCCCCC)OC(=O)C1CCN(C)CC1 [Compound 99]	0.05
CCCCCCCCOC(=O)C(C)(C)CCCCCC(CCCCCC(C)(C)C(=O)OCCCCCCCC)OC(=O)C1CCN(C)CC1 [Compound 100]	0.07
CCCCCCCCOC(=O)C(C)(C)CCCCCC(CCCCCC(C)(C)C(=O)OCCCCCCCC)OC(=O)C1CCN(C(C)C)CC1 [Compound 101]	0.06
CCCCCCCCCOC(=O)C(C)(C)CCCCCC(CCCCCC(C)(C)C(=O)OCCCCCCCCC)OC(=O)C1CCN(C)CC1 [Compound 102]	0.03
CCCCCCCCCOC(=O)C(C)(C)CCCCCC(CCCCCC(C)(C)C(=O)OCCCCCCCCC)OC(=O)C1CCN(C(C)C)CC1 [Compound 103]	0.04
CCCCCCCCCCSC(=O)C(C)(C)CCCCCC(CCCCCC(C)(C)C(=O)SCCCCCCCCCC)OC(=O)C1CCN(C)CC1 [Compound 104]	0.06
CCCCCCCCCCSC(=O)C(C)(C)CCCCCC(CCCCCC(C)(C)C(=O)SCCCCCCCCCC)OC(=O)C1CCN(C(C)C)CC1 [Compound 105]	0.05
CCCCCCCCCSC(=O)C(C)(C)CCCCCC(CCCCCC(C)(C)C(=O)SCCCCCCCCC)OC(=O)C1CCN(C)CC1 [Compound 106]	0.05
CCCCCCCCCSC(=O)C(C)(C)CCCCCC(CCCCCC(C)(C)C(=O)SCCCCCCCCC)OC(=O)C1CCN(C(C)C)CC1 [Compound 107]	0.05
CCCCCCCCCSC(=O)C(C)(C)CCCCCC(CCCCCC(C)(C)C(=O)SCCCCCCCCC)OC(=O)CC1CCN(CCO)CC1 [Compound 110]	0.01
CCCCCCCCCOC(=O)C(C)(C)CCCCCC(CCCCCC(C)(C)C(=O)OCCCCCCCCC)OC(=O)CC1CCN(CCO)CC1 [Compound 113]	0.03
CCCCCCCCCOC(=O)C(C)(C)CCCCCC(CCCCCC(C)(C)C(=O)OCC(CCCCC)CCCCCCC)OC(=O)CC1CCN(CCO)CC1 (stereo not shown) [Compound 114]	0.04
CC(C)CCCCCCCOC(=O)CCC(C)(C)CCCC(CCCC(C)(C)CCC(=O)OCCCCCCCC(C)C)OC(=O)CCCN(C)C [Compound 127]	0.05

The remaining lines, values ahead:

Particle size dispersity (PDI)	SMILES
0.05	CCCCCCCCCSC(=O)C(C)(C)CCCCCC(CCCCCC(C)(C)C(=O)SCCCCCCCCC)OC(=O)CC1CCN(C)CC1 [Compound 108]
0.06	CCCCCCCCCSC(=O)C(C)(C)CCCCCC(CCCCCC(C)(C)C(=O)SCCCCCCCCC)OC(=O)CC1CCN(CC)CC1 [Compound 109]
0.06	CCCCCCCCCOC(=O)C(C)(C)CCCCCC(CCCCCC(C)(C)C(=O)OCC(CCCCC)CCCCCCC)OC(=O)CC1CCN(C)CC1 (stereo not shown) [Compound 111]
0.08	CCCCCCCCCSC(=O)C(C)(C)CCCCCC(CCCCCC(C)(C)C(=O)OCC(CCCCC)CCCCCCC)OC(=O)CC1CCN(C)CC1 (stereo not shown) [Compound 112]
0.04	CCCCCCCC#CCOC(=O)C(C)(C)CCCCCC(CCCCCC(C)(C)C(=O)OCCCC(CCCCC)CCCCC)OC(=O)CCCN(C)C (stereo not shown) [Compound 115]
0.05	CCCCCCCC#CCOC(=O)C(C)(C)CCCCCC(CCCCCC(C)(C)C(=O)OCC(CCCCC)CCCCCCC)OC(=O)CCCN(C)C (stereo not shown) [Compound 116]
0.06	CCCCC(CC#CCOC(=O)C(C)(C)CCCCCC(CCCCCC(C)(C)C(=O)OCC#CCC(CCCC)CCCC)OC(=O)CCCN(C)C)CCCC [Compound 117]
0.07	CCCCCCCCCOC(=O)C(C)(C)CCCCCC(CCCCCC(C)(C)C(=O)OCC#CC(CCCCCC)CCCCCC)OC(=O)CCCN(C)C (stereo not shown) [Compound 118]
0.07	CCCCCCCCCOC(=O)C(C)(C)CCCCC(CCCCC(C)(C)C(=O)OCC(CCCCC)CCCCCCC)OC(=O)CCCN(C)C (stereo not shown) [Compound 122]
0.05	CCCCCCCCCCOC(=O)C(C)(C)CCCCC(CCCCC(C)(C)C(=O)OCC(CCCCC)CCCCCCC)OC(=O)CCCN(C)C (stereo not shown) [Compound 123]
0.07	CCCCCCCCCOC(=O)C(C)(C)CCCCCCC(CCCCCCC(C)(C)C(=O)OCC(CCCCC)CCCCCCC)OC(=O)CCCN(C)C (stereo not shown) [Compound 125]
0.06	CCCCCCCCCOC(=O)C(C)(C)CCCCCCC(CCCCCCC(C)(C)C(=O)OCC(CCCCC)CCCCCCC)OC(=O)CCCCN(C)C (stereo not shown) [Compound 126]
0.05	CCCCCCC(CCCCCC)CCOC(=O)CCC(C)(C)CCCC(CCCC(C)(C)CCC(=O)OCCC(CCCCCC)CCCCCC)OC(=O)CCCN(C)C [Compound 128]
0.06	CCCCCCCC(CCCCCCC)COC(=O)CCC(C)(C)CCCC(CCCC(C)(C)CCC(=O)OCC(CCCCCCC)CCCCCCC)OC(=O)CCCN(C)C [Compound 129]
0.18	CCCCCCCCCOC(=O)CCCCCCC(CCCCCCC(=O)OCCCCCCCCC)OC(=O)CCCN(C)C [D1, reference compound]
0.20	CCCCCCCCCOC(=O)CCCCCCC(CCCCCCC(=O)OCC(CCCCC)CCCCCCC)OC(=O)CCCN(C)C (stereo not shown) [D2, reference compound]
